Patent US20230279024A1, “TRIAZINE COMPOUND AND COMPOSITION AND USE THEREOF” (BEIJING FINDCURE BIOSCIENCES, LTD., priority 2020, published 2023)

What was measured:
[1] = target: AXL (h) kinase (Homo sapiens (Human), UniProt P30530); test: AXL (h) kinase activity test (EZ Reader mobility shift, FLPeptide30); format: biochemical; conditions: ATP 100 μM, AXL 1 nM
Experimental: The effect of the disclosed compounds as protein kinase inhibitors can be evaluated by the following experiments. The AXL (h) kinase activity of the compounds of the invention is tested by the following methods:
Reagents used in the experiment were AXL (Carna Bioscience, Cat No.: 08-107) and FLPeptide30 (PerkinElmer, Cat No.: 760430). The instruments involved were thermotank (Thermo Scientific), oscillator (QILINBEIER), EZ Reader (PerkinElmer, Cat No.: 122919), Non-contact stage pipetting system (Labcyte Inc., Cat No.: Echo 550), and non-contact nanoliter pipetting system (TECAN, Cat No.: EVO200).
Compound dilution: 1) Dissolve the compound in DMSO to the appropriate concentration; 2) Using TECAN EVO200 to dilute 10 concentrations in 384 microplates by three times gradient, the highest concentration is 1 mM; Echo550 was used to transfer 20 nL solution from the dilution plate to the test plate.
2) Add 15 μL solution 1 to each well of the test plate and incubate at room temperature for 30 minutes.
4) Add 5 μL solution 2 to start the reaction, and the final volume of each well is 20 μL.
5) Incubated at 25° C. for 90 min, and then added 75 μL stop solution (containing 0.5 M EDTA) to terminate the reaction.
6) The sample of each well was analyzed using EZ reader.
1) Based on the measured conversion rate (CR), the Remaining Activity (%) of the kinase was calculated according to the following function:
2) XLFit (Equation 201) software was used to fit IC50.
The above methods can be used to obtain the inhibitory IC50 and/or inhibitory constant Ki.

[2] = system: Ba/F3 AXL cells; test: Cell activity test: growth inhibition of Ba/F3 AXL cell line (CTG, 72 h); format: cell-based; conditions: Mus musculus, BaF3
Experimental: This experiment was conducted by detecting the inhibitory effect of compounds on the growth of Ba/F3 AXL cell line and Ba/F3 parental cell line. Cells in logarithmic growth stage were harvested and counted by platelet counter. Trypan blue rejection method was used to detect cell viability to ensure that the cell viability was above 90%. Adjust cell concentration; 90 μL cell suspension was added to 96-well plates, respectively; Cells in 96-well plates were cultured overnight at 37° C., 5% CO2 and 95% humidity. A 10-fold drug solution was prepared, with the highest concentration of 10 μM, and a total of 9 concentrations were diluted at 3.16 times the ratio. 10 μL drug solution was added to each well of the 96-well plate inoculated with cells, and three wells were set for each drug concentration; 96-well plates were incubated at 37° C., 5% CO2 and 95% humidity for 72 h, and CTG analysis was performed. Thaw the CTG reagent and balance the cell plates to room temperature for 30 minutes. Add the same volume of CTG solution to each well and vibrate on a fixed-rail shaker for 5 minutes to crack the cells. Place the cell plates at room temperature for 20 minutes to stabilize the cold light signal and read the cold light value. The GraphPad Prism 5.0 software was used to analyze the data, and the nonlinear S-curve regression was used to fit the data to obtain the dose-effect curve, and the IC50 value was calculated accordingly. Cell survival rate (%)=(Lum drug to be tested −Lum culture medium control)/(Lum cell control−Lum culture medium control)×100%.

AXL (h) kinase, sequence (P30530 473-894): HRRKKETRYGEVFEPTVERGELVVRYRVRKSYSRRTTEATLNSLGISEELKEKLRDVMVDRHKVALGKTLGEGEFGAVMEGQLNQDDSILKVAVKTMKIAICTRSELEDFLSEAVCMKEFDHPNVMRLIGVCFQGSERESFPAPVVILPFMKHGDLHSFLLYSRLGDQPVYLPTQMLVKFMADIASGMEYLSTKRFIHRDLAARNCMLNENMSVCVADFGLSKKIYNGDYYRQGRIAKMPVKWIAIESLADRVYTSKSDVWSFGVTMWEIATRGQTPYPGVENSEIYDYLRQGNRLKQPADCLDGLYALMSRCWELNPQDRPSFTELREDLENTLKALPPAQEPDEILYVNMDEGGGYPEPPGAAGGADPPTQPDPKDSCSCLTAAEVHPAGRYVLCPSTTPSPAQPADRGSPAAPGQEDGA

Compound	IC50 [1]	IC50 [2]
Cn1cc(-n2c(=O)c(C(=O)Nc3ccc(-c4cc(C5CCN(C(=O)C6CC6)CC5)n5ncnc(N)c45)cc3)c3n2CCCC3)cn1 [example 47]	0.005 to 0.05 µM	< 0.005 µM
CC(C)(F)C(=O)N1CCC(c2cc(-c3ccc(NC(=O)c4c5n(n(-c6ccccn6)c4=O)CCOC5)cc3F)c3c(N)ncnn23)CC1 [example 27, N-(4-(4-amino-7-(1-(2-fluoro-2-methylpropanoyl)piperidin-4-yl)pyrrolo[2,1-f][1,2,4]triazin-5-yl)-3-fluorophenyl)-2-oxo-1-(pyridin-2-yl)-2,4,6,7-tetrahydro-1H-pyrazolo[5,1-c][1,4]oxazine-3-carboxamide]	0.05 to 0.1 µM	0.005 to 0.05 µM
CC(C)C(=O)N1CCC(c2cc(-c3ccc(NC(=O)c4c5n(n(-c6ccccc6)c4=O)CCC5)cc3)c3c(N)ncnn23)CC1 [example 6, N-(4-(4-amino-7-(1-isobutyrylpiperidin-4-yl)pyrrolo[2,1-f][1,2,4]triazin-5-yl)phenyl)-2-oxo-1-phenyl-2,4,5,6-tetrahydro-1H-pyrrolo[1,2-b]pyrazole-3-carboxamide]		< 0.005 µM
Nc1ncnn2c(C3CCN(C(=O)C4CCC4)CC3)cc(-c3ccc(NC(=O)c4c5n(n(-c6ccccn6)c4=O)CCC5)cc3)c12 [example 40]	> 0.1 µM	
CC(C)(O)C(=O)N1CCC(c2cc(-c3ccc(NC(=O)c4c5n(n(-c6ccccn6)c4=O)CCCC5)cc3)c3c(N)ncnn23)CC1 [example 13, N-(4-(4-amino-7-(1-(2-hydroxy-2-methylpropanoyl)piperidin-4-yl)pyrrolo[2,1-f][1,2,4]triazin-5-yl)phenyl)-2-oxo-1-(pyridin-2-yl)-1,2,4,5,6,7-hexahydropyrazolo[1,5-a]pyridine-3-carboxamide]	0.005 to 0.05 µM	0.005 to 0.05 µM
CC(C)(F)C(=O)N1CCC(c2cc(-c3ccc(NC(=O)c4c5n(n(-c6ccccn6)c4=O)CCCC5)cc3F)c3c(N)ncnn23)CC1 [example 26, N-(4-(4-amino-7-(1-(2-fluoro-2-methylpropanoyl)piperidin-4-yl)pyrrolo[2,1-f][1,2,4]triazin-5-yl)-3-fluorophenyl)-2-oxo-1-(pyridin-2-yl)-1,2,4,5,6,7-hexahydropyrazolo[1,5-a]pyridine-3-carboxamide]	0.005 to 0.05 µM	< 0.005 µM
Nc1ncnn2c1c(-c1ccc(NC(=O)c3c4n(n(-c5ccccc5)c3=O)CCCC4)cc1F)cc2[C@H]1CC[C@H](O)CC1 [example 24, N-(4-(4-amino-7-((1r,4r)-4-hydroxycyclohexyl)pyrrolo[2,1-f][1,2,4]triazin-5-yl)-3-fluorophenyl)-2-oxo-1-phenyl-1,2,4,5,6,7-hexahydropyrazolo[1,5-a]pyridine-3-carboxamide]		< 0.005 µM
CC(C)C(=O)N1CCC(c2cc(-c3ccc(NC(=O)c4c5n(n(-c6ccccc6)c4=O)CCOC5)nc3)c3c(N)ncnn23)CC1 [example 35, N-(5-(4-amino-7-(1-isobutyrylpiperidin-4-yl)pyrrolo[2,1-f][1,2,4]triazin-5-yl)pyridin-2-yl)-2-oxo-1-phenyl-2,4,6,7-tetrahydro-1H-pyrazolo[5,1-c][1,4]oxazine-3-carboxamide]		< 0.005 µM
CC(C)C(=O)N1CCC(c2cc(-c3ccc(NC(=O)c4c5n(n(-c6ccccn6)c4=O)CCCC5)cc3)c3c(N)ncnn23)CC1 [example 18, N-(4-(4-amino-7-(1-isobutyrylpiperidin-4-yl)pyrrolo[2,1-f][1,2,4]triazin-5-yl)phenyl)-2-oxo-1-(pyridin-2-yl)-1,2,4,5,6,7-hexahydropyrazolo[1,5-a]pyridine-3-carboxamide]	0.005 to 0.05 µM	0.005 to 0.05 µM
CC(C)(O)C(=O)N1CCC(c2cc(-c3ccc(NC(=O)c4c5n(n(-c6ccccn6)c4=O)CCOC5)cc3F)c3c(N)ncnn23)CC1 [example 14, N-(4-(4-amino-7-(1-(2-hydroxy-2-methylpropanoyl)piperidin-4-yl)pyrrolo[2,1-f][1,2,4]triazin-5-yl)-3-fluorophenyl)-2-oxo-1-(pyridin-2-yl)-2,4,6,7-tetrahydro-1H-pyrazolo[5,1-c][1,4]oxazine-3-carboxamide]	0.05 to 0.1 µM	0.005 to 0.05 µM
CC(C)(F)C(=O)N1CCC(c2cc(-c3ccc(NC(=O)c4c5n(n(-c6ccccn6)c4=O)CCCC5)cc3)c3c(N)ncnn23)CC1 [example 25, N-(4-(4-amino-7-(1-(2-fluoro-2-methylpropanoyl)piperidin-4-yl)pyrrolo[2,1-f][1,2,4]triazin-5-yl)phenyl)-2-oxo-1-(pyridin-2-yl)-1,2,4,5,6,7-hexahydropyrazolo[1,5-a]pyridine-3-carboxamide]	0.005 to 0.05 µM	< 0.005 µM
Nc1ncnn2c(C3CCNCC3)cc(-c3ccc(NC(=O)c4c5n(n(-c6ccccc6)c4=O)CCC5)cc3)c12 [example 5, N-(4-(4-amino-7-(piperidin-4-yl)pyrrolo[2,1-f][1,2,4]triazin-5-yl)phenyl)-2-oxo-1-phenyl-2,4,5,6-tetrahydro-1H-pyrrolo[1,2-b]pyrazole-3-carboxamide]	> 0.1 µM	> 0.1 µM
CC(C)C(=O)N1CCC(c2cc(-c3ccc(NC(=O)c4c5n(n(-c6ccccn6)c4=O)CCCC5)cc3F)c3c(N)ncnn23)CC1 [example 17, N-(4-(4-amino-7-(1-isobutyrylpiperidin-4-yl)pyrrolo[2,1-f][1,2,4]triazin-5-yl)-3-fluorophenyl)-2-oxo-1-(pyridin-2-yl)-1,2,4,5,6,7-hexahydropyrazolo[1,5-a]pyridine-3-carboxamide]		0.005 to 0.05 µM
Nc1ncnn2c(C3CCC(O)CC3)cc(-c3ccc(NC(=O)c4c5n(n(-c6ccccc6)c4=O)CCOC5)nc3)c12 (centres unmarked) [example 23]		< 0.005 µM
Nc1ncnn2c(C3CCC(O)CC3)cc(-c3ccc(NC(=O)c4c5n(n(-c6ccccn6)c4=O)CCOC5)cc3)c12 (centres unmarked) [example 32, N-(4-(4-amino-7-((1r,4r)-4-hydroxycyclohexyl)pyrrolo[2,1-f][1,2,4]triazin-5-yl)phenyl)-2-oxo-1-(pyridin-2-yl)-2,4,6,7-tetrahydro-1H-pyrazolo[5,1-c][1,4]oxazine-3-carboxamide]		0.005 to 0.05 µM
CC(C)(F)C(=O)N1CCC(c2cc(-c3ccc(NC(=O)c4c5n(n(-c6ccccn6)c4=O)CCOC5)cc3)c3c(N)ncnn23)CC1 [example 12, N-(4-(4-amino-7-(1-(2-fluoro-2-methylpropanoyl)piperidin-4-yl)pyrrolo[2,1-f][1,2,4]triazin-5-yl)phenyl)-2-oxo-1-(pyridin-2-yl)-2,4,6,7-tetrahydro-1H-pyrazolo[5,1-c][1,4]oxazine-3-carboxamide]		0.005 to 0.05 µM
Nc1ncnn2c(C3CCN(C(=O)C4CC4)CC3)cc(-c3ccc(NC(=O)c4c5n(n(-c6ccncc6)c4=O)CCCC5)cc3)c12 [example 44]	0.05 to 0.1 µM	
Nc1ncnn2c(C3CCN(C(=O)C4CC4)CC3)cc(-c3ccc(NC(=O)c4c5n(n(-c6ccccn6)c4=O)CCOC5)cc3F)c12 [example 28, N-(4-(4-amino-7-(1-(cyclopropanecarbonyl)piperidin-4-yl)pyrrolo[2,1-f][1,2,4]triazin-5-yl)-3-fluorophenyl)-2-oxo-1-(pyridin-2-yl)-2,4,6,7-tetrahydro-1H-pyrazolo[5,1-c][1,4]oxazine-3-carboxamide]		0.005 to 0.05 µM
CC(C)(F)C(=O)N1CCC(c2cc(-c3ccc(NC(=O)c4c5n(n(-c6cccnn6)c4=O)CCCC5)cc3)c3c(N)ncnn23)CC1 [example 52]	0.005 to 0.05 µM	
Nc1ncnn2c1c(-c1ccc(NC(=O)c3c4n(n(-c5ccccn5)c3=O)CCOC4)cc1)cc2[C@H]1CC[C@H](O)CC1 [example 32, N-(4-(4-amino-7-((1r,4r)-4-hydroxycyclohexyl)pyrrolo[2,1-f][1,2,4]triazin-5-yl)phenyl)-2-oxo-1-(pyridin-2-yl)-2,4,6,7-tetrahydro-1H-pyrazolo[5,1-c][1,4]oxazine-3-carboxamide]	< 0.005 µM	
[2H][C@]1(O)CC[C@H](c2cc(-c3ccc(NC(=O)c4c5n(n(-c6ccccc6)c4=O)CCOC5)cc3F)c3c(N)ncnn32)CC1 [example 33, N-(4-(4-amino-7-((1r,4r)-4-hydroxycyclohexyl-4-d)pyrrolo[2,1-f][1,2,4]triazin-5-yl)-3-fluorophenyl)-2-oxo-1-phenyl-2,4,6,7-tetrahydro-1H-pyrazolo[5,1-c][1,4]oxazine-3-carboxamide]	0.005 to 0.05 µM	
